Test results: DBAASP
In brackets after ≈: the same amount, converted by molar mass. Values belong to the compound of their own block, whether it stands above or below them.

Tests used:
Assay in all cases: ≥ marks a high value that may be exact or a test limit, other limits are often not marked, values filed in µg/mL are converted to µM
Aeromonas hydrophila = tested on: Aeromonas hydrophila
Aeromonas salmonicida = tested on: Aeromonas salmonicida
[1] = tested on: Edwardsiella tarda ATCC 15947
[2] = tested on: Escherichia coli ATCC 8739
[3] = tested on: Pseudomonas aeruginosa ATCC 9027
[4] = tested on: Staphylococcus aureus ATCC 33592
[5] = tested on: Staphylococcus epidermidis ATCC 35984
Syspastospora parasitica = tested on: Syspastospora parasitica
[6] = tested on: Vibrio parahaemolyticus ATCC 17802
Escherichia coli BL21 = tested on: Escherichia coli BL21
[7] = tested on: Pseudomonas aeruginosa PAO1
[8] = tested on: Streptococcus pyogenes M1T1 5448
[9] = tested on: Acinetobacter baumannii ATCC 7978
[10] = tested on: Enterococcus faecium E007
[11] = tested on: Pseudomonas aeruginosa PA14
[12] = tested on: Staphylococcus aureus ATCC 29231
Acinetobacter baumannii = tested on: Acinetobacter baumannii
Aeromonas sobria = tested on: Aeromonas sobria
[13] = tested on: Bacillus cereus CMCC 63301
[14] = tested on: Bacillus subtilis CMCC 63501
Candida albicans 1 = tested on: Candida albicans 1
[15] = tested on: Candida albicans CMCC 98001
Candida glabrata = tested on: Candida glabrata
[16] = tested on: Clostridium perfringens ATCC 13124
[17] = tested on: Enterococcus faecalis ATCC 29212
Enterococcus faecium = tested on: Enterococcus faecium
[18] = tested on: Escherichia coli ATCC 25922
[19] = tested on: Escherichia coli CMCC 44102
Klebsiella pneumoniae = tested on: Klebsiella pneumoniae
[20] = tested on: Pseudomonas aeruginosa CMCC 10104
[21] = tested on: Shigella flexneri ATCC 12022
[22] = tested on: Staphylococcus aureus CMCC 26003
[23] = tested on: Staphylococcus epidermidis
Vibrio alginolyticus = tested on: Vibrio alginolyticus
Vibrio harveyi = tested on: Vibrio harveyi
Vibrio parahaemolyticus = tested on: Vibrio parahaemolyticus
Vibrio splendidus = tested on: Vibrio splendidus
Vibrio vulnificus = tested on: Vibrio vulnificus

- MIC (Aeromonas hydrophila): ≥ 125 µM
- MIC (Aeromonas salmonicida): ≥ 500 µM
- MIC [1]: ≥ 62.5 µM
- MIC [2]: 7.81 µM (≈ 15.6 µg/mL)
- MIC [3]: 0.49 µM (≈ 0.981 µg/mL)
- MIC [4]: 31.2 µM (≈ 62.6 µg/mL)
- MIC [5]: 15.6 µM (≈ 31.3 µg/mL)
- MIC (Syspastospora parasitica): 7.81 µM (≈ 15.6 µg/mL)
SMILES: NC(=O)[C@H](Cc1ccc(O)cc1)NC(=O)[C@H](Cc1c[nH]c2ccccc12)NC(=O)[C@H](CCCN=C(N)N)NC(=O)[C@H](CCCN=C(N)N)NC(=O)[C@H](Cc1ccc(O)cc1)NC(=O)[C@H](Cc1c[nH]c2ccccc12)NC(=O)[C@H](CCCN=C(N)N)NC(=O)[C@H](CCCN=C(N)N)NC(=O)[C@H](Cc1ccc(O)cc1)NC(=O)[C@H](Cc1c[nH]c2ccccc12)NC(=O)[C@H](CCCN=C(N)N)NC(=O)[C@@H](N)CCCN=C(N)N [RRWYRRWYRRWY]
- MIC [6]: ≥ 125 µM

- MIC (Escherichia coli BL21): 0.25 µM (≈ 0.76 µg/mL)
- MIC [7]: 16 µM (≈ 48.7 µg/mL)
- MIC [8]: 2 µM (≈ 6.08 µg/mL)
SMILES: CC[C@H](C)[C@H](NC(=O)[C@H](CCCN=C(N)N)NC(=O)[C@H](CC(N)=O)NC(=O)[C@@H](NC(=O)CNC(=O)[C@H](C)N)[C@@H](C)O)C(=O)N[C@@H](C)C(=O)N[C@@H](CCCCN)C(=O)N[C@@H](CCC(=O)O)C(=O)N[C@@H](CC(C)C)C(=O)N[C@@H](CCCN=C(N)N)C(=O)N[C@@H](CCCN=C(N)N)C(=O)N[C@@H](Cc1ccc(O)cc1)C(=O)N[C@H](C(=O)N[C@@H](CCCN=C(N)N)C(=O)N[C@@H](CCCCN)C(=O)N[C@H](C(=O)NCC(=O)N[C@@H](CCCN=C(N)N)C(=O)N[C@H](C(=O)N[C@@H](CCCCN)C(=O)N[C@@H](CCCN=C(N)N)C(=O)N[C@@H](CCCCN)C(=O)N[C@@H](C)C(=O)N[C@@H](Cc1c[nH]c2ccccc12)C(=O)O)[C@@H](C)CC)C(C)C)[C@@H](C)CC [AGTNRIAKELRRYIRKVGRIKRKAW]

- MIC [9]: 7.33 µM (≈ 16 µg/mL)
- MIC [10]: ≥ 58.6 µM
- MIC [11]: 14.7 µM (≈ 32 µg/mL)
- MIC [12]: 1.83 µM (≈ 3.99 µg/mL)
SMILES: CC[C@H](C)[C@H](NC(=O)[C@H](CCCCN)NC(=O)[C@H](Cc1c[nH]c2ccccc12)NC(=O)[C@@H](N)CC(C)C)C(=O)NCC(=O)N[C@@H](CCCCN)C(=O)N[C@@H](CCCCN)C(=O)N[C@H](C(=O)N[C@@H](Cc1c[nH]c2ccccc12)C(=O)N[C@@H](CCCN=C(N)N)C(=O)N[C@H](C(=O)N[C@@H](CC(C)C)C(=O)N[C@@H](Cc1c[nH]c2ccccc12)C(=O)N[C@@H](CC(N)=O)C(=O)N[C@@H](Cc1c[nH]c2ccccc12)C(=O)N[C@@H](CCCN=C(N)N)C(=O)O)C(C)C)[C@@H](C)CC [LWKIGKKIWRVLWNWR]

- MIC (Acinetobacter baumannii): 31.9 µM (≈ 100 µg/mL)
- MIC (Aeromonas hydrophila): 11.9 µM (≈ 37.5 µg/mL)
- MIC (Aeromonas sobria): 31.9 µM (≈ 100 µg/mL)
- MIC [13]: 31.9 µM (≈ 100 µg/mL)
- MIC [14]: 11.9 µM (≈ 37.5 µg/mL)
- MIC (Candida albicans 1): 31.9 µM (≈ 100 µg/mL)
- MIC [15]: 31.9 µM (≈ 100 µg/mL)
- MIC (Candida glabrata): 31.9 µM (≈ 100 µg/mL)
- MIC [16]: 11.9 µM (≈ 37.5 µg/mL)
- MIC [17]: > 31.9 µM
- MIC (Enterococcus faecium): 31.9 µM (≈ 100 µg/mL)
- MIC [18]: 2.99 µM (≈ 9.38 µg/mL)
- MIC [19]: 5.97 µM (≈ 18.8 µg/mL)
- MIC (Klebsiella pneumoniae): > 31.9 µM
- MIC [20]: 31.9 µM (≈ 100 µg/mL)
- MIC [21]: 5.97 µM (≈ 18.8 µg/mL)
- MIC [22]: 2.99 µM (≈ 9.38 µg/mL)
- MIC [23]: 31.9 µM (≈ 100 µg/mL)
- MIC (Vibrio alginolyticus): 31.9 µM (≈ 100 µg/mL)
- MIC (Vibrio harveyi): 23.9 µM (≈ 75 µg/mL)
- MIC (Vibrio splendidus): 23.9 µM (≈ 75 µg/mL)
- MIC (Vibrio vulnificus): 31.9 µM (≈ 100 µg/mL)
SMILES: CC[C@H](C)[C@H](NC(=O)[C@H](CC(N)=O)NC(=O)[C@H](CS)NC(=O)CNC(=O)[C@@H](N)CCC(=O)O)C(=O)N[C@@H](CC(C)C)C(=O)N[C@@H](CS)C(=O)N[C@@H](CC(C)C)C(=O)N[C@@H](CC(C)C)C(=O)N[C@@H](CCCCN)C(=O)N[C@@H](CCCN=C(N)N)C(=O)N[C@@H](CCCCN)C(=O)N[C@H](C(=O)N[C@@H](CCCCN)C(=O)N[C@@H](C)C(=O)N[C@H](C(=O)N[C@@H](CCCCN)C(=O)N[C@@H](CC(N)=O)C(=O)N[C@H](C(=O)N[C@H](C(=O)N[C@@H](CCCCN)C(=O)N[C@@H](CC(N)=O)C(=O)N[C@H](C(=O)N[C@H](C(=O)N[C@@H](CCCCN)C(=O)N[C@@H](CO)C(=O)N[C@H](C(=O)N[C@H](C(=O)NCC(=O)O)C(C)C)C(C)C)C(C)C)C(C)C)C(C)C)C(C)C)C(C)C)C(C)C [EGCNILCLLKRKVKAVKNVVKNVVKSVVG]
- MIC (Vibrio parahaemolyticus): 2.99 µM (≈ 9.38 µg/mL)
